These results are taken from paper PMC7897990, “TriTOX: A novel Trichomonas vaginalis assay platform for high-throughput screening of compound libraries” (International Journal for Parasitology: Drugs and Drug …, 2021).

For the test, the system named is Trichomonas vaginalis G3 trophozoites. The conditions noted are these: for T.vaginalis_Absorbance_Rep1: replicate 1, raw absorbance; for T.vaginalis_Absorbance_Rep2: replicate 2, raw absorbance; for T. vaginalis HTS result in words: 384-well, 25 μL, 10,000 cells/mL, 48 h, biological duplicates, hit = >50% inhibition.
Where [1] appears, read: HTS replicate 1, parasite screen 1 µg/mL.
Where [2] appears, read: HTS replicate 2, parasite screen 1 µg/mL.
[3] abbreviates: HTS, parasite screen at 1 µg/mL, replicate 1.
Where [4] appears, read: HTS, parasite screen at 1 µg/mL, replicate 2.
Setting [5] is: HTS, parasite screen at 1 µg/mL.

Read-outs that look alike come from different tables or passages of the source. Positions of bridges follow the written chain, without caps; N, C: chain ends. Non-standard residues stand in square brackets, D forms with d. Residues, ends and D or L forms follow the SMILES beside them. *: point of attachment. NMePhe(4-NMe2) = CN[C@@H](Cc1ccc(N(C)C)cc1)C(=O)O; Pip(4-oxo) = O=C1CCN[C@H](C(=O)O)C1; Picolinoyl(3-OH) = O=C(c1ncccc1O)*; Phg = N[C@H](C(=O)O)c1ccccc1; dAbu = CC[C@@H](N)C(=O)O; GABA = NCCCC(=O)O

`COCC(=O)N[C@@H](C(=O)N1NCCC[C@H]1C(=O)N[C@@H](Cc1ccccc1)[C@@H](O)[C@H](C)C(=O)N[C@H]1CCN(C(N)=O)C1=O)[C@H](O)C(C)C` [Padanamide A] registered a T.vaginalis_%inb_Rep1 under setting [1] of 15.72%. Under setting [2], this compound came in with a T.vaginalis_%inb_Rep2 of 10.52%.

Milbemycin oxime: the T.vaginalis_%inb_Rep1 under setting [1] is on record as 12.53%. Further, under setting [2], the T.vaginalis_%inb_Rep2 was 12.96%.

The compound `CCC1NC(=O)C(NC(=O)c2ncccc2O)C(C)OC(=O)C(c2ccccc2)NC(=O)C2CC(=O)CCN2C(=O)C(Cc2ccccc2)N(C)C(=O)C2CCCN2C1=O` (stereo not drawn) [Virginiamycin S1] registered a T.vaginalis_%inb_Rep1 under setting [3] of 9.96%. The same compound registered a T.vaginalis_%inb_Rep2 under setting [4] of 3.72%.

As for `CO[C@H]1C[C@H](O[C@H]2[C@H](C)O[C@@H](O[C@@H]3/C(C)=C/C[C@@H]4C[C@@H](C[C@]5(C=C[C@H](C)[C@@H](C6CCCCC6)O5)O4)OC(=O)C4=C[C@H](C)[C@@H](O)[C@H]5OC/C(=C\C=C[C@@H]3C)[C@@]45O)C[C@@H]2OC)O[C@@H](C)[C@@H]1O` [Doramectin, delta2-], the T.vaginalis_%inb_Rep1 under setting [3] was 13.79%. Under setting [5], this compound displayed a T.vaginalis_Absorbance_Rep1 of 0.965 and a T.vaginalis_Absorbance_Rep2 of 0.828. Further, the T.vaginalis_%inb_Rep2 under setting [4] stood at 15.04%.

In the case of `COc1c2c(cc3c1c(=O)c1ccccc1n3C)OCO2` [Evoxanthine], the T.vaginalis_%inb_Rep1 under setting [3] was determined as 15.29%. Under setting [5], this compound gave a T.vaginalis_Absorbance_Rep1 of 0.993 and a T.vaginalis_Absorbance_Rep2 of 0.695. This compound yielded a T.vaginalis_%inb_Rep2 under setting [4] of 5.42%.

In the case of `CC(=O)Nc1c2sscc-2n(C)c1=O` [thiolutin, reference compound], the “T. vaginalis HTS result in words” value was “supported the anti-trichomonal activity”.

Under setting [3], `CC(C)=CC(=O)CC(C)c1ccc(C)cc1` (stereo not drawn) [Turmerone] returned a T.vaginalis_%inb_Rep1 of 9.33%. The compound also yielded a T.vaginalis_%inb_Rep2 under setting [4] of 14.44%.

Turning to `CCCN1C[C@H](C)[C@@H](O)[C@](C)(O)[C@@H](CC)OC(=O)[C@H](C)[C@@H](O[C@H]2C[C@@](C)(OC)[C@@H](O)[C@H](C)O2)[C@H](C)[C@@H](O[C@@H]2O[C@H](C)C[C@H](N(C)C)[C@H]2O)[C@](C)(O)C[C@H]1C` [Gamithromycin], under setting [3], the T.vaginalis_%inb_Rep1 worked out at 5.73%. Under setting [5], this compound yielded a T.vaginalis_Absorbance_Rep1 of 0.815 and a T.vaginalis_Absorbance_Rep2 of 0.759. Under setting [4], the T.vaginalis_%inb_Rep2 turned out to be 7.95%.

Compound `C[C@@H](O)CCCCCCCCCCCCCc1cc(O)cc(O)c1C(=O)O` [Phanerosporic acid] yielded a T.vaginalis_%inb_Rep1 under setting [1] of 18.46%. Under setting [2], the T.vaginalis_%inb_Rep2 was found to be 9.81%.

As to `COc1ccc2nc(C(=O)N[C@@H]3COC(=O)[C@H](C(C)(C)O)N(C)C(=O)CN(C)C(=O)CNC(=O)[C@@H]4[C@@H](OC(C)=O)CC=NN4C(=O)[C@H](NC(=O)c4nc5ccc(OC)cc5cc4O)COC(=O)[C@H](C(C)(C)O)N(C)C(=O)CN(C)C(=O)CNC(=O)[C@@H]4[C@@H](OC(C)=O)CC=NN4C3=O)c(O)cc2c1` [luzopeptin A, reference compound], the “T. vaginalis HTS result in words” value is “partial hits”.

Under setting [3], `CO[C@H]1C[C@H](O[C@H]2[C@H](C)O[C@@H](O[C@@H]3/C(C)=C/C[C@@H]4C[C@@H](C[C@]5(C=C[C@H](C)[C@@H](C6CCCCC6)O5)O4)OC(=O)[C@H]4C=C(C)[C@@H](O)[C@H]5OC/C(=C\C=C\[C@@H]3C)[C@@]45O)C[C@@H]2OC)O[C@@H](C)[C@@H]1O` [Doramectin, epi-] registered a T.vaginalis_%inb_Rep1 of 16.13%. Moreover, under setting [5], the T.vaginalis_Absorbance_Rep1 is on record as 1.02 and the T.vaginalis_Absorbance_Rep2 turned out to be 0.877. The same compound registered a T.vaginalis_%inb_Rep2 under setting [4] of 15.52%.

In turn, `Cc1ccc2c(c1O)C(=O)c1c(cc(O)c(C(=O)O)c1C)[C@]2(C)OO[C@@]1(C)c2cc(O)c(C(=O)O)c(C)c2C(=O)c2c1ccc(C)c2O` [Oxanthromicin, (+)] had a T.vaginalis_%inb_Rep1 under setting [1] of 15.31%. The compound also returned a T.vaginalis_%inb_Rep2 under setting [2] of 5.45%.

As for `CC[C@H]1NC(=O)[C@@H](NC(=O)c2ncccc2O)[C@@H](C)OC(=O)[C@H](c2ccccc2)NC(=O)[C@@H]2CC(=O)CCN2C(=O)[C@H](Cc2ccc(N(C)C)cc2)N(C)C(=O)[C@@H]2CCCN2C1=O` [Virginiamycin B] ({Picolinoyl(3-OH)}-T[dAbu]P[NMePhe(4-NMe2)][Pip(4-oxo)][Phg]; ester 1-C), under setting [3], the T.vaginalis_%inb_Rep1 is recorded as 8.39%. For the same compound, the T.vaginalis_%inb_Rep2 under setting [4] was 11.09%.

`COc1cc(O)c2c(=O)oc3c(O)c(OC)cc(C)c3c2c1` [Graphislactone A] returned a T.vaginalis_%inb_Rep1 under setting [3] of 13.44%. Under setting [5], this compound came in with a T.vaginalis_Absorbance_Rep1 of 0.967 and a T.vaginalis_Absorbance_Rep2 of 0.892. Moreover, under setting [4], the T.vaginalis_%inb_Rep2 worked out at 16.48%.

Consider `CC1=CC[C@H]2C(C)(C)CCC[C@]2(C)[C@H]1CO` [Drimenol], for which, under setting [3], the T.vaginalis_%inb_Rep1 was 14.49%. Under setting [5], this compound showed a T.vaginalis_Absorbance_Rep1 of 0.978 and a T.vaginalis_Absorbance_Rep2 of 0.774. This compound also displayed a T.vaginalis_%inb_Rep2 under setting [4] of 11.14%.

Take `CN1CCC2(c3cccc4c3NC3N(C)CCC43c3cccc4c3NC3N(C)CCC43C34CCN(C)C3Nc3c(C56CCN(C)C5Nc5ccccc56)cccc34)c3ccccc3NC12` (stereo not drawn) [Psychotridine]: the T.vaginalis_%inb_Rep1 under setting [1] is recorded as 9.23%. The T.vaginalis_%inb_Rep2 under setting [2] is on record as 6.15%.

`C=C1CC[C@H]2C(C)(C)CCC[C@]2(C)[C@H]1C[C@@]12C[C@H]3C(=O)N[C@@H](CC(C)C)C(=O)N3[C@@H]1Nc1ccccc12` [Drimentine A] came in with a T.vaginalis_%inb_Rep1 under setting [3] of 15.46%. Under setting [5], this compound gave a T.vaginalis_Absorbance_Rep1 of 0.996 and a T.vaginalis_Absorbance_Rep2 of 0.688. Under setting [4], this compound yielded a T.vaginalis_%inb_Rep2 of 4.92%.

As for `COC1C(OC(N)=O)C(O)C(Oc2ccc3c(O)c(NC(=O)c4ccc(O)c(CCC(C)C)c4)c(=O)oc3c2C)OC1(C)C` (stereo not drawn) [Dihydronovobiocin], the T.vaginalis_%inb_Rep1 under setting [3] stood at 2.80%. Further, under setting [5], the T.vaginalis_Absorbance_Rep1 was 0.761 and the T.vaginalis_Absorbance_Rep2 turned out to be 0.687. Also, the T.vaginalis_%inb_Rep2 under setting [4] worked out at 4.84%.

In turn, `CCC/C=C/C=C/[C@@H]1C[C@@H](O)[C@@H](O)C(=O)[C@H]1CO` [Palitantin] returned a T.vaginalis_%inb_Rep1 under setting [1] of 13.59%. The T.vaginalis_%inb_Rep2 under setting [2] is recorded as 14.56%.

For `CC1=C[C@H]2C(=O)O[C@H]3C[C@@H](C/C=C(\C)C[C@@H](C)/C=C/C=C4\CO[C@H]([C@@H]1O)[C@@]42O)O[C@@]1(CC[C@H](C)[C@@H](C)O1)C3` [Milbemycin A3], the T.vaginalis_%inb_Rep1 under setting [1] is listed as 11.05%. This compound showed a T.vaginalis_%inb_Rep2 under setting [2] of 8.85%.

`CCC(O)C(C)(O)C1OC(=O)C(C)C(OC2CC(C)(OC)C(O)C(C)O2)C(C)C(OC2OC(C)CC(N(C)C)C2O)C2(C)CC(C)=C(O2)C1C` (stereo not drawn) [Pseudoerythromycin A enol ether]: the T.vaginalis_%inb_Rep1 under setting [1] was found to be 13.84%. In addition, under setting [2], the T.vaginalis_%inb_Rep2 was 5.58%.

Compound `CCc1c(O)c(C)c(C(C)CC)oc1=O` (stereo not drawn) [Germicidin A] had a T.vaginalis_%inb_Rep1 under setting [3] of 11.41%. Under setting [5], this compound showed a T.vaginalis_Absorbance_Rep1 of 0.927 and a T.vaginalis_Absorbance_Rep2 of 0.825. The same compound came in with a T.vaginalis_%inb_Rep2 under setting [4] of 12.19%.

`COC1=C(O)c2c(O)cc(C)c3c(O)cc(O)c(c23)C1=O` [Funalenone] had a T.vaginalis_%inb_Rep1 under setting [3] of 14.50%. Under setting [5], this compound registered a T.vaginalis_Absorbance_Rep1 of 0.988 and a T.vaginalis_Absorbance_Rep2 of 0.837. Further, the T.vaginalis_%inb_Rep2 under setting [4] was 12.96%.

The compound `CC(=O)c1c(O)c(C(C)=O)c(O)c(C(C)=O)c1O` [Triacetylphloroglucinol] registered a T.vaginalis_%inb_Rep1 under setting [3] of 10.38%. Moreover, the T.vaginalis_%inb_Rep2 under setting [4] is on record as 10.12%.

In the case of `CCOC(=O)c1c(C)cc(O)cc1O` [Ethyl orsellinate], the T.vaginalis_%inb_Rep1 under setting [3] is 14.45%. Also, under setting [5], the T.vaginalis_Absorbance_Rep1 came to 0.987 and the T.vaginalis_Absorbance_Rep2 is on record as 0.817. Besides, the T.vaginalis_%inb_Rep2 under setting [4] turned out to be 11.67%.

`CC(C)C[C@@H]1NC(=O)[C@@H](C(C)C)NC(=O)[C@@H](C)NC(=O)CCCNC(=O)[C@@H](Cc2c[nH]c3ccccc23)NC(=O)[C@@H](C)NC(=O)[C@@H](C(C)C)NC1=O` [Unguisin B] (cyclo([GABA][dA][dV]L[dV][dA][dW])) came in with a T.vaginalis_%inb_Rep1 under setting [3] of 10.17%. Moreover, the T.vaginalis_%inb_Rep2 under setting [4] worked out at 14.69%.

`COc1c(Cl)c(O)c(Cl)c(C)c1C(=O)O[C@H]1[C@H](O)C[C@H](O[C@H]2[C@@H](O)CC(=O)O[C@@H]2C)O[C@@H]1C` [Flambalactone]: the T.vaginalis_%inb_Rep1 under setting [3] was found to be 13.89%. Moreover, under setting [5], the T.vaginalis_Absorbance_Rep1 is 0.967 and the T.vaginalis_Absorbance_Rep2 is recorded as 0.807. Also, the T.vaginalis_%inb_Rep2 under setting [4] came out at 13.52%.

In turn, `CC(=O)c1c(O)cc(O)cc1O` [Monoacetylphloroglucinol] gave a T.vaginalis_%inb_Rep1 under setting [1] of 4.36%. Also, the T.vaginalis_%inb_Rep2 under setting [2] is listed as 14.18%.

Under setting [3], `CCCCCCC(C)C/C(C)=C\C(/C=C(C)/C=C/C(O)C(C)(C)c1cc(O)c([C@@H]2O[C@H](CO)C[C@H](O)[C@H]2O)c(=O)o1)CO` (stereo partly drawn) [Fusapyrone] returned a T.vaginalis_%inb_Rep1 of 13.39%. Under setting [5], this compound showed a T.vaginalis_Absorbance_Rep1 of 0.966 and a T.vaginalis_Absorbance_Rep2 of 0.841. Further, the T.vaginalis_%inb_Rep2 under setting [4] was determined as 13.21%.

For the compound `CCCNC[C@]1(O)[C@H](C)O[C@@H](O[C@H]2[C@H](C)[C@@H](O[C@@H]3O[C@H](C)C[C@H](N(C)C)[C@H]3O)[C@](C)(O)C[C@@H](C)CN[C@H](C)[C@@H](O)[C@](C)(O)[C@@H](CC)OC(=O)[C@@H]2C)C[C@@]1(C)OC` [Tulathromycin], under setting [3], the T.vaginalis_%inb_Rep1 was determined as 10.12%. This compound gave a T.vaginalis_%inb_Rep2 under setting [4] of 14.75%.

Regarding `COC1=C(OC)C(=O)C(C)C(C)C1=O` (stereo not drawn) [Gliorosein], the T.vaginalis_%inb_Rep1 under setting [3] is 13.24%. Under setting [5], this compound registered a T.vaginalis_Absorbance_Rep1 of 0.963 and a T.vaginalis_Absorbance_Rep2 of 0.874. The compound also displayed a T.vaginalis_%inb_Rep2 under setting [4] of 15.33%.

For the compound `COC(=O)c1cc(O)cc(OC)c1C(=O)c1c(O)cc(C)cc1OC` [Monomethylsulochrin], under setting [1], the T.vaginalis_%inb_Rep1 is listed as 8.42%. This compound also had a T.vaginalis_%inb_Rep2 under setting [2] of 11.03%.
